Experimental data reported in ChEMBL document CHEMBL5038625, “Application of the dual-tail approach for the design and synthesis of novel Thiopyrimidine-Benzenesulfonamide hybrids as selective carbonic anhydrase inhibitors” (Eur J Med Chem, 2022).

Tests used:
RXF 393 = experiment: Antiproliferative activity against human RXF 393 cells assessed as cell growth inhibition at 10 uM incubated for 24 hrs by sulforhodamine B assay; type: functional; conditions: read-out: GI
T47D [1] = experiment: Antiproliferative activity against human T47D cells assessed as reduction in cell viability incubated for 24 hrs by sulforhodamine B assay; type: functional, cell-based
NCI-H226 = experiment: Antiproliferative activity against human NCI-H226 cells assessed as cell growth inhibition at 10 uM incubated for 24 hrs by sulforhodamine B assay; type: functional; conditions: read-out: GI
NCI-H23 = experiment: Antiproliferative activity against human NCI-H23 cells assessed as cell growth inhibition at 10 uM incubated for 24 hrs by sulforhodamine B assay; type: functional; conditions: read-out: GI
HL-60 = experiment: Antiproliferative activity against human HL-60 cells assessed as cell growth inhibition at 10 uM incubated for 24 hrs by sulforhodamine B assay; type: functional; conditions: read-out: GI
UACC-62 = experiment: Antiproliferative activity against human UACC-62 cells assessed as cell growth inhibition at 10 uM incubated for 24 hrs by sulforhodamine B assay; type: functional; conditions: read-out: GI
MDA-MB-231 [2] = experiment: Antiproliferative activity against human MDA-MB-231 cells assessed as cell growth inhibition at 10 uM incubated for 24 hrs by sulforhodamine B assay; type: functional; conditions: read-out: GI
Carbonic anhydrase 9 = Carbonic anhydrase 9 (Homo sapiens, UniProt Q16790); experiment: Inhibition of human CA9 preincubated for 15 mins by phenol red dye based stopped flow CO2 hydration assay
SK-OV-3 = experiment: Antiproliferative activity against human SK-OV-3 cells assessed as cell growth inhibition at 10 uM incubated for 24 hrs by sulforhodamine B assay; type: functional; conditions: read-out: GI
MDA-MB-231 [3] = experiment: Antiproliferative activity against human MDA-MB-231 cells assessed as reduction in cell viability incubated for 24 hrs by sulforhodamine B assay; type: functional, cell-based; conditions: MDA-MB-231, 24 h
CAKI-1 = experiment: Antiproliferative activity against human CAKI-1 cells assessed as cell growth inhibition at 10 uM incubated for 24 hrs by sulforhodamine B assay; type: functional; conditions: read-out: GI
LOX IMVI = experiment: Antiproliferative activity against human LOX IMVI cells assessed as cell growth inhibition at 10 uM incubated for 24 hrs by sulforhodamine B assay; type: functional; conditions: read-out: GI
UO-31 = experiment: Antiproliferative activity against human UO-31 cells assessed as cell growth inhibition at 10 uM incubated for 24 hrs by sulforhodamine B assay; type: functional; conditions: read-out: GI
MCF7 [4] = experiment: Antiproliferative activity against human MCF7 cells assessed as cell growth inhibition at 10 uM incubated for 24 hrs by sulforhodamine B assay; type: functional; conditions: read-out: GI
NCI-H522 = experiment: Antiproliferative activity against human NCI-H522 cells assessed as cell growth inhibition at 10 uM incubated for 24 hrs by sulforhodamine B assay; type: functional; conditions: read-out: GI
ACHN = experiment: Antiproliferative activity against human ACHN cells assessed as cell growth inhibition at 10 uM incubated for 24 hrs by sulforhodamine B assay; type: functional; conditions: read-out: GI
MCF7 [5] = experiment: Antiproliferative activity against human MCF7 cells assessed as reduction in cell viability incubated for 24 hrs by sulforhodamine B assay; type: functional, cell-based; conditions: MCF7, 24 h
MDA-MB-468 = experiment: Antiproliferative activity against human MDA-MB-468 cells assessed as cell growth inhibition at 10 uM incubated for 24 hrs by sulforhodamine B assay; type: functional; conditions: read-out: GI
786-0 = experiment: Antiproliferative activity against human 786-0 cells assessed as cell growth inhibition at 10 uM incubated for 24 hrs by sulforhodamine B assay; type: functional; conditions: read-out: GI
M14 = experiment: Antiproliferative activity against human M14 cells assessed as cell growth inhibition at 10 uM incubated for 24 hrs by sulforhodamine B assay; type: functional; conditions: read-out: GI
K562 = experiment: Antiproliferative activity against human K562 cells assessed as cell growth inhibition at 10 uM incubated for 24 hrs by sulforhodamine B assay; type: functional; conditions: read-out: GI
PC-3 = experiment: Antiproliferative activity against human PC-3 cells assessed as cell growth inhibition at 10 uM incubated for 24 hrs by sulforhodamine B assay; type: functional; conditions: read-out: GI
OVCAR-4 = experiment: Antiproliferative activity against human OVCAR-4 cells assessed as cell growth inhibition at 10 uM incubated for 24 hrs by sulforhodamine B assay; type: functional; conditions: read-out: GI
Carbonic anhydrase 2 = Carbonic anhydrase 2 (Homo sapiens, UniProt P00918); experiment: Inhibition of human CA2 preincubated for 15 mins by phenol red dye based stopped flow CO2 hydration assay
KM12 = experiment: Antiproliferative activity against human KM12 cells assessed as cell growth inhibition at 10 uM incubated for 24 hrs by sulforhodamine B assay; type: functional; conditions: read-out: GI
DU-145 = experiment: Antiproliferative activity against human DU-145 cells assessed as cell growth inhibition at 10 uM incubated for 24 hrs by sulforhodamine B assay; type: functional; conditions: read-out: GI
SK-MEL-5 = experiment: Antiproliferative activity against human SK-MEL-5 cells assessed as cell growth inhibition at 10 uM incubated for 24 hrs by sulforhodamine B assay; type: functional; conditions: read-out: GI
[6] = Antiproliferative activity against human […] cells assessed as cell growth inhibition at 10 uM incubated for 24 hrs by sulforhodamine B assay; type: functional; conditions: read-out: GI
T47D [7] = experiment: Antiproliferative activity against human T47D cells assessed as cell growth inhibition at 10 uM incubated for 24 hrs by sulforhodamine B assay; type: functional; conditions: read-out: GI
OVCAR-5 = experiment: Antiproliferative activity against human OVCAR-5 cells assessed as cell growth inhibition at 10 uM incubated for 24 hrs by sulforhodamine B assay; type: functional; conditions: read-out: GI
CCRF-CEM = experiment: Antiproliferative activity against human CCRF-CEM cells assessed as cell growth inhibition at 10 uM incubated for 24 hrs by sulforhodamine B assay; type: functional; conditions: read-out: GI
SN12C = experiment: Antiproliferative activity against human SN12C cells assessed as cell growth inhibition at 10 uM incubated for 24 hrs by sulforhodamine B assay; type: functional; conditions: read-out: GI
SR = experiment: Antiproliferative activity against human SR cells assessed as cell growth inhibition at 10 uM incubated for 24 hrs by sulforhodamine B assay; type: functional; conditions: read-out: GI
A549 = experiment: Antiproliferative activity against human A549 cells assessed as cell growth inhibition at 10 uM incubated for 24 hrs by sulforhodamine B assay; type: functional; conditions: read-out: GI
MOLT-4 = experiment: Antiproliferative activity against human MOLT-4 cells assessed as cell growth inhibition at 10 uM incubated for 24 hrs by sulforhodamine B assay; type: functional; conditions: read-out: GI
HCT-116 = experiment: Antiproliferative activity against human HCT-116 cells assessed as cell growth inhibition at 10 uM incubated for 24 hrs by sulforhodamine B assay; type: functional; conditions: read-out: GI
HCT-15 = experiment: Antiproliferative activity against human HCT-15 cells assessed as cell growth inhibition at 10 uM incubated for 24 hrs by sulforhodamine B assay; type: functional; conditions: read-out: GI
COLO 205 = experiment: Antiproliferative activity against human COLO 205 cells assessed as cell growth inhibition at 10 uM incubated for 24 hrs by sulforhodamine B assay; type: functional; conditions: read-out: GI
SF-539 = experiment: Antiproliferative activity against human SF-539 cells assessed as cell growth inhibition at 10 uM incubated for 24 hrs by sulforhodamine B assay; type: functional; conditions: read-out: GI
HT-29 = experiment: Antiproliferative activity against human HT-29 cells assessed as cell growth inhibition at 10 uM incubated for 24 hrs by sulforhodamine B assay; type: functional; conditions: read-out: GI
RPMI-8226 = experiment: Antiproliferative activity against human RPMI-8226 cells assessed as cell growth inhibition at 10 uM incubated for 24 hrs by sulforhodamine B assay; type: functional; conditions: read-out: GI
EKVX = experiment: Antiproliferative activity against human EKVX cells assessed as cell growth inhibition at 10 uM incubated for 24 hrs by sulforhodamine B assay; type: functional; conditions: read-out: GI
SK-MEL-2 = experiment: Antiproliferative activity against human SK-MEL-2 cells assessed as cell growth inhibition at 10 uM incubated for 24 hrs by sulforhodamine B assay; type: functional; conditions: read-out: GI
Malme-3M = experiment: Antiproliferative activity against human Malme-3M cells assessed as cell growth inhibition at 10 uM incubated for 24 hrs by sulforhodamine B assay; type: functional; conditions: read-out: GI

Structure (SMILES) | inhibition of growth at 10 µM (RXF 393) [%] | inhibition of growth at 10 µM (NCI-H226) [%] | inhibition of growth at 10 µM (NCI-H23) [%] | inhibition of growth at 10 µM (HL-60) [%] | inhibition of growth at 10 µM (UACC-62) [%] | inhibition of growth at 10 µM (MDA-MB-231 [2]) [%] | Ki (Carbonic anhydrase 9) [nM] | inhibition of growth at 10 µM (CAKI-1) [%] | inhibition of growth at 10 µM (LOX IMVI) [%] | inhibition of growth at 10 µM (UO-31) [%] | inhibition of growth at 10 µM (MCF7 [4]) [%] | inhibition of growth at 10 µM (NCI-H522) [%] | inhibition of growth at 10 µM (ACHN) [%] | inhibition of growth at 10 µM (MDA-MB-468) [%] | inhibition of growth at 10 µM (K562) [%] | inhibition of growth at 10 µM (PC-3) [%] | inhibition of growth at 10 µM (OVCAR-4) [%] | Ki (Carbonic anhydrase 2) [µM] | inhibition of growth at 10 µM (SK-MEL-5) [%] | inhibition of growth at 10 µM (T47D [7]) [%] | also measured
CC(C)c1nc(SCC(=O)c2ccccc2)nc(Nc2ccc(S(N)(=O)=O)cc2)c1C#N | 13.8 | 11.8 | 13.1 | 5.93 | 10.2 | 5.5 | 96.6 | 8.76 | 16.5 | 36.3 | 11.4 | 10.1 | 7.34 | 9.86 | – | – | – | – | – | – | IC50 (T47D [1]): 46.4 µM; inhibition of growth at 10 µM (SK-OV-3): 5.58%; IC50 (MDA-MB-231 [3]): 21 µM; IC50 (MCF7 [5]): 47.6 µM; inhibition of growth at 10 µM (786-0): 5.2%
NS(=O)(=O)c1ccc(Nc2cc(-c3ccccc3)nc(SCC(=O)c3ccc(Br)cc3)n2)cc1 | – | – | – | – | – | – | 322 | 19.4 | 12.7 | 19.4 | 26.9 | – | 9.12 | – | 22.8 | 8.3 | 7.69 | > 20 | 5.28 | 10.3 | inhibition of growth at 10 µM (M14): 7.75%; inhibition of growth at 10 µM (KM12): 11.9%; inhibition of growth at 10 µM (DU-145): 5.84%; inhibition of growth at 10 µM [6]: 14.2%; inhibition of growth at 10 µM (OVCAR-5): 5.54%; inhibition of growth at 10 µM (CCRF-CEM): 8.13%; inhibition of growth at 10 µM (SN12C): 13.3%; inhibition of growth at 10 µM (SR): 15.7%; inhibition of growth at 10 µM (A549): 6.27%; inhibition of growth at 10 µM (MOLT-4): 15.8%; inhibition of growth at 10 µM (HCT-116): 8.87%; inhibition of growth at 10 µM (HCT-15): 28.4%; inhibition of growth at 10 µM (COLO 205): 9.34%; inhibition of growth at 10 µM (SF-539): 5.75%; inhibition of growth at 10 µM (HT-29): 21.8%
CC(C)c1nc(SCC(=O)c2ccc(Br)cc2)nc(Nc2ccc(S(N)(=O)=O)cc2)c1C#N | 22.2 | 21.1 | 20.2 | 24.1 | 24.3 | 9.41 | 380 | 12.2 | – | 31.2 | 6.24 | 10.7 | 6.53 | 15.3 | 9.23 | 12.5 | 6.52 | > 20 | 5.21 | 33 | inhibition of growth at 10 µM (RPMI-8226): 12.3%; inhibition of growth at 10 µM (SN12C): 5.41%; inhibition of growth at 10 µM (EKVX): 10.7%; inhibition of growth at 10 µM (MOLT-4): 13.7%; inhibition of growth at 10 µM (HCT-116): 6.95%; inhibition of growth at 10 µM (HCT-15): 7.17%; inhibition of growth at 10 µM (SK-MEL-2): 9.02%; inhibition of growth at 10 µM (Malme-3M): 11.7%
